According to US9493446B2, “Orexin receptor antagonists which are [ortho bi-(hetero-)aryl]-[2-(meta bi-(hetero-)aryl)-pyrrolidin-1-yl]-methanone derivatives” (Actelion Pharmaceuticals Ltd, priority 2012, dated 2016):
Like-named read-outs stand apart in the source and are kept apart here.

How the values were obtained:
orexin-1 = orexin-1 (Homo sapiens (Human), UniProt O43613); assay: Intracellular calcium measurement (FLIPR), CHO cells expressing human orexin-1 receptor, 3 nM orexin-A; type: cell-based; details: read-out: IC50 OX1
orexin-1, sequence (O43613 whole entry): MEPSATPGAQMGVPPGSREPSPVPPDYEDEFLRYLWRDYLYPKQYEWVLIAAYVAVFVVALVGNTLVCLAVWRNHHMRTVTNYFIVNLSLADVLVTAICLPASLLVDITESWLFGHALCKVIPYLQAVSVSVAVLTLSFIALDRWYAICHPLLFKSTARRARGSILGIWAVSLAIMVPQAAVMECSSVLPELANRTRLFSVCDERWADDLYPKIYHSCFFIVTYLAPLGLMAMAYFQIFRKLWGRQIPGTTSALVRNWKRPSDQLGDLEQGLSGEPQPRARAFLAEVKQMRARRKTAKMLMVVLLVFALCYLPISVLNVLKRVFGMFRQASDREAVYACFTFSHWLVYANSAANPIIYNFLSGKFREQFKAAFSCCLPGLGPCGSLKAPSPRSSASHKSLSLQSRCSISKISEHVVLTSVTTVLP
Procedure, shortened: (§1)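 CHO transfectants were dye-loaded (fluo-4 AM, probenecid) and exposed to antagonist for 120 min ahead of agonist.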

human orexin-2 receptor = human orexin-2 receptor (Homo sapiens (Human), UniProt O43614); assay: Intracellular calcium measurement (FLIPR), CHO cells expressing human orexin-2 receptor, 3 nM orexin-A; type: cell-based; details: read-out: IC50 OX2
human orexin-2 receptor, sequence (O43614 whole entry): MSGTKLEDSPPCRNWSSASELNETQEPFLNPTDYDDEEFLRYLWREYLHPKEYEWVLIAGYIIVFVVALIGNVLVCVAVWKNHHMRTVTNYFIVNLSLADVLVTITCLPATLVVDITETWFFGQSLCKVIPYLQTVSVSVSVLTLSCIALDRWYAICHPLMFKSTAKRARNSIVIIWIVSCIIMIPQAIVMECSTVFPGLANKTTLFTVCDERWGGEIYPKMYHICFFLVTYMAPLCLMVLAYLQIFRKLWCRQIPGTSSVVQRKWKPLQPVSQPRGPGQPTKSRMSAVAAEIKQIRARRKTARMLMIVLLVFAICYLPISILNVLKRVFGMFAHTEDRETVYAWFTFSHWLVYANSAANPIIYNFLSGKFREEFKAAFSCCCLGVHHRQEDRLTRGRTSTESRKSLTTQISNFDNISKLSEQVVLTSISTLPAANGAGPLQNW
Procedure, shortened: as §1

[1] = CHO cells expressing human orexin-1 receptor, FLIPR, 3 nM orexin-A, geometric mean if determined several times
[2] = CHO cells expressing human orexin-2 receptor, FLIPR, 3 nM orexin-A, geometric mean if determined several times

| IC50 (orexin-1; [1]) [nM] | IC50 (human orexin-2 receptor; [2]) [nM] | Compound | IC50 (human orexin-2 receptor) [nM] | IC50 (orexin-1) [nM] |
| --- | --- | --- | --- | --- |
| 44 | 37 | CCOc1c(F)cccc1-c1noc([C@@H]2CCCN2C(=O)c2ccc(C)cc2-n2nccn2)n1 [compound 289, {(S)-2-[3-(2-Ethoxy-3-fluoro-phenyl)-[1,2,4]oxadiazol-5-yl]-pyrrolidin-1-yl}-(4-methyl-2-[1,2,3]triazol-2-yl-phenyl)-methanone] |  |  |
| 88 | 71 | Cc1ccc(-n2nccn2)c(C(=O)N2CCC[C@H]2c2nc(-c3ccccc3OC(F)(F)F)no2)n1 [compound 159, (6-Methyl-3-[1,2,3]triazol-2-yl-pyridin-2-yl)-{(S)-2-[3-(2-trifluoromethoxy-phenyl)-[1,2,4]oxadiazol-5-yl]-pyrrolidin-1-yl}-methanone] |  |  |
| 348 | 52 | CCOc1c(F)cccc1-c1noc([C@@H]2CCCN2C(=O)c2cc(OC)c(F)cc2-n2nccn2)n1 [compound 292, {(S)-2-[3-(2-Ethoxy-3-fluoro-phenyl)-[1,2,4]oxadiazol-5-yl]-pyrrolidin-1-yl}-(4-fluoro-5-methoxy-2-[1,2,3]triazol-2-yl-phenyl)-methanone] |  |  |
| 709 | 45 | COc1cccc(-c2cnc([C@@H]3CCCN3C(=O)c3cc(C)ccc3-n3nccn3)[nH]2)c1 [compound 524, {(S)-2-[5-(3-Methoxy-phenyl)-1H-imidazol-2-yl]-pyrrolidin-1-yl}-(5-methyl-2-[1,2,3]triazol-2-yl-phenyl)-methanone] |  |  |
| 68 | 45 | Cc1nc(C(=O)N2CCC[C@H]2c2nnc(-c3ccccc3OC(F)(F)F)o2)c(-c2cccc(F)c2)s1 [compound 443, [5-(3-Fluoro-phenyl)-2-methyl-thiazol-4-yl]-{(S)-2-[5-(2-trifluoromethoxy-phenyl)-[1,3,4]oxadiazol-2-yl]-pyrrolidin-1-yl}-methanone] |  |  |
| 7 | 4 | Cc1ccc(-n2nccn2)c(C(=O)N2CCC[C@H]2c2nc(-c3cn(C)c4ccccc34)no2)c1 [compound 57, {(S)-2-[3-(1-Methyl-1H-indol-3-yl)-[1,2,4]oxadiazol-5-yl]-pyrrolidin-1-yl}-(5-methyl-2-[1,2,3]triazol-2-yl-phenyl)-methanone] |  |  |
| 9 | 5 | CCOc1c(F)cccc1-c1noc([C@@H]2CCCN2C(=O)c2cc(C)c(C)cc2-n2nccn2)n1 [compound 290, (4,5-Dimethyl-2-[1,2,3]triazol-2-yl-phenyl)-{(S)-2-[3-(2-ethoxy-3-fluoro-phenyl)-[1,2,4]oxadiazol-5-yl]-pyrrolidin-1-yl}-methanone] |  |  |
| 70 | 13 | Cc1ccc(-n2nccn2)c(C(=O)N2CCC[C@H]2c2nc(-c3cccc(C)c3C)no2)c1 [compound 13, {(S)-2-[3-(2,3-Dimethyl-phenyl)-[1,2,4]oxadiazol-5-yl]-pyrrolidin-1-yl}-(5-methyl-2-[1,2,3]triazol-2-yl-phenyl)-methanone] |  |  |
| 1060 | 133 | Cc1ccc(-n2nccn2)c(C(=O)N2CCC[C@H]2c2cc(-c3ccccc3)no2)c1 [Example 420, (5-Methyl-2-[1,2,3]triazol-2-yl-phenyl)-[(S)-2-(3-phenyl-isoxazol-5-yl)-pyrrolidin-1-yl]-methanone] |  |  |
| 505 | 105 | CCOc1ccccc1-c1noc([C@@H]2CCCN2C(=O)c2cc(F)ccc2-n2nccn2)n1 [compound 263, {(S)-2-[3-(2-Ethoxy-phenyl)-[1,2,4]oxadiazol-5-yl]-pyrrolidin-1-yl}-(5-fluoro-2-[1,2,3]triazol-2-yl-phenyl)-methanone] |  |  |
| > 1630 | 242 | Cc1ccc(-n2nccn2)c(C(=O)N2CCC[C@H]2c2nc(-c3cc(C)c(C)cn3)no2)c1 [compound 62, {(S)-2-[3-(4,5-Dimethyl-pyridin-2-yl)-[1,2,4]oxadiazol-5-yl]-pyrrolidin-1-yl}-(5-methyl-2-[1,2,3]triazol-2-yl-phenyl)-methanone] |  |  |
| 45 | 12 | COc1cc(C)cc(-c2nc([C@@H]3CCCN3C(=O)c3cc(C)ccc3-n3nccn3)no2)c1 [compound 409, {(S)-2-[5-(3-Methoxy-5-methyl-phenyl)-[1,2,4]oxadiazol-3-yl]-pyrrolidin-1-yl}-(5-methyl-2-[1,2,3]triazol-2-yl-phenyl)-methanone] |  |  |
| 320 | 12 | COc1c(F)cccc1-c1nc([C@@H]2CCCN2C(=O)c2ccccc2-n2nccn2)no1 [compound 334, {(S)-2-[5-(3-Fluoro-2-methoxy-phenyl)-[1,2,4]oxadiazol-3-yl]-pyrrolidin-1-yl}-(2-[1,2,3]triazol-2-yl-phenyl)-methanone] |  |  |
| 52 | 8 | Cc1ccc(-n2nccn2)c(C(=O)N2CCC[C@H]2c2nc(-c3cccc4ccn(C)c34)no2)c1 [compound 77, {(S)-2-[3-(1-Methyl-1H-indol-7-yl)-[1,2,4]oxadiazol-5-yl]-pyrrolidin-1-yl}-(5-methyl-2-[1,2,3]triazol-2-yl-phenyl)-methanone] |  |  |
| 3980 | 2880 | C[C@@]1(c2nc(-c3ccccc3)no2)CCCN1C(=O)c1ccccc1-n1nccn1 [Example 537, [(S)-2-Methyl-2-(3-phenyl-[1,2,4]oxadiazol-5-yl)-pyrrolidin-1-yl]-(2-[1,2,3]triazol-2-yl-phenyl)-methanone] |  |  |
| 151 | 6 | CCOc1c(F)cccc1-c1nc([C@@H]2CCCN2C(=O)c2cc(OC)c(F)cc2-n2nccn2)no1 [compound 325, {(S)-2-[5-(2-Ethoxy-3-fluoro-phenyl)-[1,2,4]oxadiazol-3-yl]-pyrrolidin-1-yl}-(4-fluoro-5-methoxy-2-[1,2,3]triazol-2-yl-phenyl)-methanone] |  |  |
| 99 | 4 | CCOc1ncccc1-c1nc([C@@H]2CCCN2C(=O)c2cc(OC)c(F)cc2-n2nccn2)no1 [compound 332, {(S)-2-[5-(2-Ethoxy-pyridin-3-yl)-[1,2,4]oxadiazol-3-yl]-pyrrolidin-1-yl}-(4-fluoro-5-methoxy-2-[1,2,3]triazol-2-yl-phenyl)-methanone] |  |  |
| 7 | 3 | CCc1ccccc1-c1nc([C@@H]2CCCN2C(=O)c2cc(C)c(C)cc2-n2nccn2)no1 [compound 401, (4,5-Dimethyl-2-[1,2,3]triazol-2-yl-phenyl)-{(S)-2-[5-(2-ethyl-phenyl)-[1,2,4]oxadiazol-3-yl]-pyrrolidin-1-yl}-methanone] |  |  |
| 103 | 40 | Cc1ccc(-n2nccn2)c(C(=O)N2CCC[C@H]2c2nc(-c3cccnc3OC(F)F)no2)c1 [Example 86, {(S)-2-[3-(2-Difluoromethoxy-pyridin-3-yl)-[1,2,4]oxadiazol-5-yl]-pyrrolidin-1-yl}-(5-methyl-2-[1,2,3]triazol-2-yl-phenyl)-methanone] |  |  |
| 174 | 5 | Cc1c(F)cccc1-c1noc([C@@H]2CCCN2C(=O)c2cccc(F)c2-c2ccn[nH]2)n1 [compound 253, {(S)-2-[3-(3-Fluoro-2-methyl-phenyl)-[1,2,4]oxadiazol-5-yl]-pyrrolidin-1-yl}-[3-fluoro-2-(2H-pyrazol-3-yl)-phenyl]-methanone] |  |  |
| 45 | 3 | COc1c(F)cccc1-c1nc([C@@H]2CCCN2C(=O)c2cc(C)ccc2-n2nccn2)no1 [compound 336, {(S)-2-[5-(3-Fluoro-2-methoxy-phenyl)-[1,2,4]oxadiazol-3-yl]-pyrrolidin-1-yl}-(5-methyl-2-[1,2,3]triazol-2-yl-phenyl)-methanone] |  |  |
| 27 | 2 | COc1cc(C(=O)N2CCC[C@H]2c2nc(-c3cccc(F)c3OC)no2)c(-n2nccn2)cc1C [compound 201, {(S)-2-[3-(3-Fluoro-2-methoxy-phenyl)-[1,2,4]oxadiazol-5-yl]-pyrrolidin-1-yl}-(5-methoxy-4-methyl-2-[1,2,3]triazol-2-yl-phenyl)-methanone] |  |  |

| Compound | IC50 (orexin-1; [1]) [nM] | IC50 (human orexin-2 receptor; [2]) [nM] | IC50 (human orexin-2 receptor) [nM] | IC50 (orexin-1) [nM] |
| --- | --- | --- | --- | --- |
| COc1ccc(C)c(-c2nc([C@@H]3CCCN3C(=O)c3ccc(Cl)cc3-n3nccn3)no2)c1 [compound 419] | 207 |  | 16 |  |
| COc1cc(C(=O)N2CCC[C@H]2c2nc(-c3cccc(Cl)c3C)no2)c(-c2ncccn2)cc1C [compound 269] | 177 | 12 |  |  |
| {(S)-2-[3-(3-Chloro-phenyl)-[1,2,4]oxadiazol-5-yl]-pyrrolidin-1-yl}-thiophen-2-yl-methanone [Reference compound 2, reference compound] | 253 | 41 |  |  |
| COc1cc(C(=O)N2CCC[C@H]2c2noc(-c3cc(C)ccc3C)n2)c(-n2nccn2)cc1Cl [compound 408] | 31 | 2 |  |  |
| Cc1c(Cl)cccc1-c1noc([C@@H]2CCCN2C(=O)c2cc(F)ccc2-n2nccn2)n1 [compound 104] | 1030 |  | 38 |  |
| CCOc1c(F)cccc1-c1noc([C@@H]2CCCN2C(=O)c2cc(Cl)c(C)cc2-n2nccn2)n1 [compound 300] | 14 | 10 |  |  |
| (4,5-Dimethyl-2-[1,2,3]triazol-2-yl-phenyl)-{(S)-2-[5-(2-trifluoromethoxy-phenyl)-[1,2,4]oxadiazol-3-yl]-pyrrolidin-1-yl}-methanone [Example 304] | 4 | 3 |  |  |
| COc1c(F)cccc1-c1nc([C@@H]2CCCN2C(=O)c2cccc(Cl)c2-n2nccn2)no1 [compound 363] | 155 | 111 |  |  |
| Cc1ccc(C)c(-c2nc([C@@H]3CCCN3C(=O)c3ccc(Cl)cc3-n3nccn3)no2)c1 [compound 399] |  | 10 |  | 77 |
| O=C(c1cc(Cl)ccc1-n1nccn1)N1CCC[C@H]1c1nc(-c2ccccc2Cl)no1 [compound 236] | 1850 |  | 150 |  |
